Reference: ChEMBL document CHEMBL2401728, “An unexpected Dimroth rearrangement leading to annelated thieno[3,2-d][1,2,3]triazolo[1,5-a]pyrimidines with potent antitumor activity” (Eur J Med Chem, 2013)

How the values were obtained:
Type in all cases: functional
[1] = system: PC-3; assay: Cytotoxicity against human PC3 cells assessed as cellular growth at 10 uM after 48 hrs by SRB assay relative to control
[2] = system: ACHN; assay: Cytotoxicity against human ACHN cells assessed as cellular growth at 10 uM after 48 hrs by SRB assay relative to control
[3] = system: SK-MEL-5; assay: Cytotoxicity against human SK-MEL-5 cells assessed as cellular growth at 10 uM after 48 hrs by SRB assay relative to control
[4] = system: SF-268; assay: Cytotoxicity against human SF268 cells assessed as cellular growth at 10 uM after 48 hrs by SRB assay relative to control
[5] = system: RPMI-8226; assay: Cytotoxicity against human RPMI8226 cells assessed as cellular growth at 10 uM after 48 hrs by SRB assay relative to control
[6] = system: SR; assay: Cytotoxicity against human SR cells assessed as cellular growth at 10 uM after 48 hrs by SRB assay relative to control
[7] = system: SK-OV-3; assay: Cytotoxicity against human SKOV3 cells assessed as cellular growth at 0.01 uM after 48 hrs by SRB assay relative to control
[8] = Cytotoxicity against human NCI-ADR-RES cells assessed as cellular growth at 0.01 uM after 48 hrs by SRB assay relative to control
[9] = system: SK-MEL-28; assay: Cytotoxicity against human SK-MEL-28 cells assessed as cellular growth at 0.01 uM after 48 hrs by SRB assay relative to control
[10] = system: U-251; assay: Cytotoxicity against human U251 cells assessed as cellular growth at 0.01 uM after 48 hrs by SRB assay relative to control
[11] = system: HCT-15; assay: Cytotoxicity against human HCT15 cells assessed as cellular growth at 0.01 uM after 48 hrs by SRB assay relative to control
[12] = system: COLO 205; assay: Cytotoxicity against human COLO205 cells assessed as cellular growth at 0.01 uM after 48 hrs by SRB assay relative to control
[13] = system: UO-31; assay: Cytotoxicity against human UO31 cells assessed as cellular growth at 100 uM after 48 hrs by SRB assay relative to control
[14] = system: K562; assay: Cytotoxicity against human K562 cells assessed as cellular growth at 0.01 uM after 48 hrs by SRB assay relative to control
[15] = system: CCRF-CEM; assay: Cytotoxicity against human CCRF-CEM cells assessed as cellular growth at 0.01 uM after 48 hrs by SRB assay relative to control
[16] = system: IGROV-1; assay: Cytotoxicity against human IGROV1 cells assessed as cellular growth at 100 uM after 48 hrs by SRB assay relative to control
[17] = system: SF-539; assay: Cytotoxicity against human SF539 cells assessed as cellular growth at 100 uM after 48 hrs by SRB assay relative to control
[18] = system: HCT-15; assay: Cytotoxicity against human HCT15 cells assessed as cellular growth at 100 uM after 48 hrs by SRB assay relative to control
[19] = system: NCI-H460; assay: Cytotoxicity against human NCI-H460 cells assessed as cellular growth at 100 uM after 48 hrs by SRB assay relative to control
[20] = system: HOP-62; assay: Cytotoxicity against human HOP62 cells assessed as cellular growth at 100 uM after 48 hrs by SRB assay relative to control
[21] = system: T47D; assay: Cytotoxicity against human T47D cells assessed as cellular growth at 1 uM after 48 hrs by SRB assay relative to control
[22] = system: Hs-578T; assay: Cytotoxicity against human Hs578T cells assessed as cellular growth at 10 uM after 48 hrs by SRB assay relative to control
[23] = system: Hs-578T; assay: Cytotoxicity against human Hs578T cells assessed as cellular growth at 100 uM after 48 hrs by SRB assay relative to control
[24] = system: Hs-578T; assay: Cytotoxicity against human Hs578T cells assessed as cellular growth at 1 uM after 48 hrs by SRB assay relative to control
[25] = system: Malme-3M; assay: Cytotoxicity against human MALME-3M cells assessed as cellular growth at 1 uM after 48 hrs by SRB assay relative to control
[26] = system: SF-539; assay: Cytotoxicity against human SF539 cells assessed as cellular growth at 1 uM after 48 hrs by SRB assay relative to control
[27] = system: COLO 205; assay: Cytotoxicity against human COLO205 cells assessed as cellular growth at 1 uM after 48 hrs by SRB assay relative to control
[28] = system: NCI-H23; assay: Cytotoxicity against human NCI-H23 cells assessed as cellular growth at 1 uM after 48 hrs by SRB assay relative to control
[29] = system: HOP-92; assay: Cytotoxicity against human HOP92 cells assessed as cellular growth at 1 uM after 48 hrs by SRB assay relative to control
[30] = system: A549; assay: Cytotoxicity against human A549 cells assessed as cellular growth at 1 uM after 48 hrs by SRB assay relative to control
[31] = system: SR; assay: Cytotoxicity against human SR cells assessed as cellular growth at 1 uM after 48 hrs by SRB assay relative to control
[32] = system: HL-60(TB); assay: Cytotoxicity against human HL-60(TB) cells assessed as cellular growth at 1 uM after 48 hrs by SRB assay relative to control
[33] = system: TK-10; assay: Cytotoxicity against human TK10 cells after 48 hrs by SRB assay; conditions: TK-10, 48 h
[34] = system: ACHN; assay: Cytotoxicity against human ACHN cells after 48 hrs by SRB assay
[35] = system: SR; assay: Cytotoxicity against human SR cells after 48 hrs by SRB assay
[36] = system: UACC-62; assay: Cytotoxicity against human UACC62 cells assessed as cellular growth at 0.1 uM after 48 hrs by SRB assay relative to control
[37] = system: SNB-75; assay: Cytotoxicity against human SNB75 cells assessed as cellular growth at 0.1 uM after 48 hrs by SRB assay relative to control
[38] = system: HCT-15; assay: Cytotoxicity against human HCT15 cells assessed as cellular growth at 0.1 uM after 48 hrs by SRB assay relative to control
[39] = system: MDA-MB-468; assay: Cytotoxicity against human MDA-MB-468 cells assessed as cellular growth at 0.01 uM after 48 hrs by SRB assay relative to control
[40] = system: Hs-578T; assay: Cytotoxicity against human Hs578T cells assessed as cellular growth at 0.01 uM after 48 hrs by SRB assay relative to control
[41] = system: DU-145; assay: Cytotoxicity against human DU145 cells assessed as cellular growth at 0.01 uM after 48 hrs by SRB assay relative to control
[42] = read-out: LC50 (the source's name)
[43] = read-out: pLC50 (the source's name) (converted)

`O=C(O)CCCn1c2c(sc3ccccc32)c(=O)n2nnc(-c3ccccc3)c12` gave an Activity [1] of 89.28%, an Activity [2] of 79.06% and an Activity [3] of 79.01%. For the same compound, the Activity [4] was 91.25%, the Activity [5] was 93.76% and the Activity [6] was 117.58%.
With `CN1CCN(CCCn2c3c(sc4ncccc43)c(=O)n3nnc(-c4ccccc4)c23)CC1` the Activity [7] was 101%, the Activity [8] was 96% and the Activity [9] was 100%. For the same compound, the Activity [10] was 97%, the Activity [11] was 94% and the Activity [12] was 95%. For the same compound, the Activity [13] was -87%, the Activity [14] was 95% and the Activity [15] was 109%. The Activity [16] was -75%, the Activity [17] was -69% and the Activity [18] was -69%. For the same compound, the Activity [19] was -72%, the Activity [20] was -81% and the Activity [21] was 103%. It also gave an Activity [22] of 69%, an Activity [1] of -3.82% and an Activity [2] of -77%. It also gave an Activity [3] of -98%, an Activity [4] of -77% and an Activity [5] of -48%. It also gave an Activity [6] of -50%, an Activity [23] of -43% and an Activity [24] of 96%. The Activity [25] was 105%, the Activity [26] was 90% and the Activity [27] was 86%. It also gave an Activity [28] of 94%, an Activity [29] of 82% and an Activity [30] of 95%. For the same compound, the Activity [31] was 104%, the Activity [32] was 89% and the GI50 ([33]; read-out: GI50) was 2.15 µM. It also gave a TGI ([33]; read-out: TGI) of 3.75 µM, a GI50 ([33]; read-out: pGI50 (converted)) of 2.14 µM and a TGI ([33]; read-out: pTGI (converted)) of 3.72 µM. It also gave a GI50 ([34]; read-out: GI50) of 1.63 µM, a CC50 [34, 42] of 6.79 µM and a TGI ([34]; read-out: TGI) of 3.32 µM. It also gave a GI50 ([34]; read-out: pGI50 (converted)) of 1.62 µM, a CC50 [34, 43] of 6.76 µM and a TGI ([34]; read-out: pTGI (converted)) of 3.31 µM. It also gave a GI50 ([35]; read-out: GI50) of 2.25 µM, a TGI ([35]; read-out: TGI) of 4.74 µM and a GI50 ([35]; read-out: pGI50 (converted)) of 2.24 µM. It also gave a TGI ([35]; read-out: pTGI (converted)) of 4.79 µM, an Activity [36] of 79% and an Activity [37] of 71%. The Activity [38] was 91%, the Activity [39] was 94% and the Activity [40] was 95%. For the same compound, the Activity [41] was 97%.
In the case of `O=C(CCCn1c2c(sc3ccccc32)c(=O)n2nnc(-c3ccccc3)c12)NCCc1c[nH]cn1`, the Activity [7] is reported as 108%, the Activity [8] is reported as 101% and the Activity [9] is reported as 117%. It also gave an Activity [10] of 78%, an Activity [11] of 96% and an Activity [12] of 87%. It also gave an Activity [13] of -61%, an Activity [14] of 65% and an Activity [15] of 56%. It also gave an Activity [16] of -63%, an Activity [17] of -99% and an Activity [18] of -100%. It also gave an Activity [19] of -15%, an Activity [20] of -66% and an Activity [21] of 57%. It also gave an Activity [22] of -50%, an Activity [1] of -84.51% and an Activity [2] of -84%. The Activity [3] was -67.14%, the Activity [4] was -77% and the Activity [5] was -4.25%. The Activity [6] was -64%, the Activity [23] was -49% and the Activity [24] was 70%. For the same compound, the Activity [25] was 81%, the Activity [26] was -6% and the Activity [27] was 41%. It also gave an Activity [28] of 65%, an Activity [29] of 93% and an Activity [30] of 64%. For the same compound, the Activity [31] was -18%, the Activity [32] was 29% and the GI50 ([33]; read-out: GI50) was 2.17 µM. It also gave a CC50 [33, 42] of 6.42 µM, a TGI ([33]; read-out: TGI) of 3.73 µM and a GI50 ([33]; read-out: pGI50 (converted)) of 2.19 µM. The CC50 [33, 43] was 6.46 µM, the TGI ([33]; read-out: pTGI (converted)) was 3.72 µM and the GI50 ([34]; read-out: GI50) was 1.58 µM. The CC50 [34, 42] was 6.26 µM, the TGI ([34]; read-out: TGI) was 3.14 µM and the GI50 ([34]; read-out: pGI50 (converted)) was 1.58 µM. The CC50 [34, 43] was 6.31 µM, the TGI ([34]; read-out: pTGI (converted)) was 3.16 µM and the GI50 ([35]; read-out: GI50) was 0.218 µM. The CC50 [35, 42] was 4.99 µM, the TGI ([35]; read-out: TGI) was 0.664 µM and the GI50 ([35]; read-out: pGI50 (converted)) was 0.219 µM. For the same compound, the CC50 [35, 43] was 5.01 µM, the TGI ([35]; read-out: pTGI (converted)) was 0.661 µM and the Activity [36] was 96%. For the same compound, the Activity [37] was 115%, the Activity [38] was 78% and the Activity [39] was 102%. The Activity [40] was 109% and the Activity [41] was 105%.
